This note sets out measurements from US4266001A, “Light-sensitive mixture” (Hoechst Aktiengesellschaft, priority 1978, dated 1981).

A short description of this data set: Solubility of naphthoquinone diazides in ethylene glycol monomethyl ether. The format is physicochemical. Particulars: for Solubility (%): 26° C., stirred for 2 hours, 2 g in 50 g, crystalline samples, substantially free from amorphous fractions; for solubility (in words): Table 2. The procedure: The solubility of the new naphthoquinone diazides, as compared with the known bis-1,2-naphthoquinone-2-diazide-5-sulfonic acid ester of 2,2-bis-(4-hydroxyphenyl)-propane (comparison compound V), was determined as follows: 2 g of the naphthoquinone diazide were suspended in each case in 50 g of ethylene glycol monomethyl ether and stirred for 2 hours at 26° C. Then, the mixture was filtered by suction, the filter residue was washed successively with 10 cm^3 of methanol and 10 cm^3 of ether and dried in vacuo and its weight was determined. The solubilities in ethylene glycol monomethyl ether, listed in Table 2, were calculated from the difference to the quantity employed: […]
In all cases, it was confirmed by diffraction diagrams taken with an X-ray diffractometer that the samples tested were substantially free from amorphous fractions. In every case, the solubility of a solid compound which is wholly or partially present in the amorphous state is markedly higher than that of the corresponding crystalline compound. A comparison with these values is, however, unreliable because the solubilities of amorphous compounds cannot be determined with exact reproducibility due to the differing tendency of supersaturated solutions to crystallize.

On to `COC(=O)CCC(C)(c1ccc(OS(=O)(=O)c2cccc3c2C=CC(=[N+]=[N-])C3=O)cc1)c1ccc(OS(=O)(=O)c2cccc3c2C=CC(=[N+]=[N-])C3=O)cc1` (centres unmarked) [Compound 2], for which the “Solubility (%)” value stood at 1.85% and the “solubility (in words)” value is given as “very good solubility”.

On to `CCOC(=O)CCC(C)(c1ccc(OS(=O)(=O)c2cccc3c2C=CC(=[N+]=[N-])C3=O)cc1)c1ccc(OS(=O)(=O)c2cccc3c2C=CC(=[N+]=[N-])C3=O)cc1` (centres unmarked) [Compound 3], for which the “Solubility (%)” value is recorded as 0.86%.

In the case of `COCCOC(=O)CCC(C)(c1ccc(OS(=O)(=O)c2cccc3c2C=CC(=[N+]=[N-])C3=O)cc1)c1ccc(OS(=O)(=O)c2cccc3c2C=CC(=[N+]=[N-])C3=O)cc1` (centres unmarked) [Compound 7], the “Solubility (%)” value came to 0.91%.

For `CCOCCOC(=O)CCC(C)(c1ccc(OS(=O)(=O)c2cccc3c2C=CC(=[N+]=[N-])C3=O)cc1)c1ccc(OS(=O)(=O)c2cccc3c2C=CC(=[N+]=[N-])C3=O)cc1` (centres unmarked) [Compound 8], the “Solubility (%)” value was determined as 3.80% and the “solubility (in words)” value was “very good solubility”.

Take `COC(C)CCOC(=O)CCC(C)(c1ccc(OS(=O)(=O)c2cccc3c2C=CC(=[N+]=[N-])C3=O)cc1)c1ccc(OS(=O)(=O)c2cccc3c2C=CC(=[N+]=[N-])C3=O)cc1` (centres unmarked) [Compound 9]: the “Solubility (%)” value came to 1.54% and the “solubility (in words)” value is reported as “very good solubility”.

Regarding `CCCOC(=O)C(c1ccc(OS(=O)(=O)c2cccc3c2C=CC(=[N+]=[N-])C3=O)cc1)c1ccc(OS(=O)(=O)c2cccc3c2C=CC(=[N+]=[N-])C3=O)cc1` (centres unmarked) [Compound 19], the “Solubility (%)” value amounted to 0.95%.

In the case of `CCCCOC(=O)C(c1ccc(OS(=O)(=O)c2cccc3c2C=CC(=[N+]=[N-])C3=O)cc1)c1ccc(OS(=O)(=O)c2cccc3c2C=CC(=[N+]=[N-])C3=O)cc1` (centres unmarked) [Compound 20], the “Solubility (%)” value is greater than 7.4% and the “solubility (in words)” value is given as “very good solubility”.

Turning to `CCOCCOC(=O)C(c1ccc(OS(=O)(=O)c2cccc3c2C=CC(=[N+]=[N-])C3=O)cc1)c1ccc(OS(=O)(=O)c2cccc3c2C=CC(=[N+]=[N-])C3=O)cc1` (centres unmarked) [Compound 22], the “Solubility (%)” value is recorded as 6.0% and the “solubility (in words)” value is listed as “very good solubility”.

`CC(C)(c1ccc(OS(=O)(=O)c2cccc3c2C=CC(=[N+]=[N-])C3=O)cc1)c1ccc(OS(=O)(=O)c2cccc3c2C=CC(=[N+]=[N-])C3=O)cc1` [V, bis-1,2-naphthoquinone-2-diazide-5-sulfonic acid ester of 2,2-bis-(4-hydroxyphenyl)-propane, reference compound]: the “Solubility (%)” value is given as 0.75%.
